Test system: dural protein extravasation
Experiment: Animal model of dural protein extravasation (electrical stimulation of the trigeminal ganglion, Evans Blue)
Assay type: in vivo
Conditions: administered orally to rats
Method: The following animal model may be employed to determine the ability of the compounds of Formula I or Formula Ia to inhibit protein extravasation, an exemplary functional assay of the neuronal mechanism of migraine.
A. Harlan Sprague-Dawley rats (225-325 g) or guinea pigs from Charles River Laboratories (225-325 g) are anesthetized with sodium pentobarbital intraperitoneally (65 mg/kg or 45 mg/kg respectively) and are placed in a stereotaxic frame David Kopf Instruments) with the incisor bar set at −3.5 mm for rats or −4.0 mm for guinea pigs. Following a midline sagital scalp incision, two pairs of bilateral holes are drilled through the skull (6 mm posterially, 2.0 and 4.0 mm laterally in rats; 4 mm posteriorly and 3.2 and 5.2 mm laterally in guinea pigs, all coordinates referenced to bregma). […]
D. A fluorescence microscope (Zeiss) equipped with a grating monchromator and a spectrophotometer is used to quantify the amount of Evans Blue dye in each sample. An excitation wavelength of approximately 535 nm is utilized and the emission intensity at 600 nm is determined. […] This facilitates the computer-controlled movement of the stage with fluorescence measurements at 25 points ([…]) on each dural sample. The mean and standard deviation of the measurements are determined by the computer. […]

Structure (SMILES): CCOC(=O)[C@@H]1C[C@H]2C[C@@H](CN3CC(F)(F)C[C@H]3C(=O)OCC)CC[C@H]2CN1.Cl.Cl [3S,4aR,6S,8aR Ethyl 6-(((2S)-2-Ethoxycarbonyl)4,4-difluoropyrrolidinyl)methyl)-1,2,3,4,4a,5,6,7,8,8a-decahydroisoquinoline-3-carboxylate.dihydrochloride]
- ID100 (dose that inhibits the extravasation by 100%): approximately 0.01 ng/Kg

Source: patent US20040082606A1, “Excitatory amino acid receptor antagonists” (priority 2003, published 2004)
